# Data reported in ChEMBL document CHEMBL1201862, “PubChem BioAssay data set” (2004).
#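 Each compound was tested at five concentrations against cells in 96-well plates for 48 hours. Here, GI50 denotes the concentration required for 50% inhibition of growth.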 Activity calls are given as the source filed them. Rule as the data show it: active = GI50 up to about 1.1 µM and inactive = higher.
# Columns and labels:
# Assay in all cases: NCI-60 cell line screen, 48 h
# 786-0 = test system: 786-0
# A498 = test system: A498
# A549 = test system: A549
# ACHN = test system: ACHN
# BT-549 = test system: BT-549
# CAKI-1 = test system: CAKI-1
# CCRF-CEM = test system: CCRF-CEM
# COLO 205 = test system: COLO 205
# DU-145 = test system: DU-145
# EKVX = test system: EKVX
# HCC 2998 = test system: HCC 2998
# HCT-116 = test system: HCT-116
# HCT-15 = test system: HCT-15
# HOP-62 = test system: HOP-62
# HT-29 = test system: HT-29
# IGROV-1 = test system: IGROV-1
# K562 = test system: K562
# KM12 = test system: KM12
# LOX IMVI = test system: LOX IMVI
# M14 = test system: M14
# MCF7 = test system: MCF7
# MDA-MB-231 = test system: MDA-MB-231
# MDA-MB-435 = test system: MDA-MB-435
# MDA-N = test system: MDA-N
# MOLT-4 = test system: MOLT-4
# Malme-3M = test system: Malme-3M
# NCI-H226 = test system: NCI-H226
# NCI-H23 = test system: NCI-H23
# NCI-H460 = test system: NCI-H460
# NCI-H522 = test system: NCI-H522
# NCI/ADR-RES = test system: NCI/ADR-RES
# OVCAR-4 = test system: OVCAR-4
# OVCAR-5 = test system: OVCAR-5
# OVCAR-8 = test system: OVCAR-8
# PC-3 = test system: PC-3
# RPMI-8226 = test system: RPMI-8226
# RXF 393 = test system: RXF 393
# SF-268 = test system: SF-268
# SF-295 = test system: SF-295
# SF-539 = test system: SF-539
# SK-MEL-28 = test system: SK-MEL-28
# SK-MEL-2 = test system: SK-MEL-2
# SK-MEL-5 = test system: SK-MEL-5
# SK-OV-3 = test system: SK-OV-3
# SN12C = test system: SN12C
# SNB-19 = test system: SNB-19
# SNB-75 = test system: SNB-75
# SR = test system: SR
# SW-620 = test system: SW-620
# T47D = test system: T47D
# TK-10 = test system: TK-10
# U-251 = test system: U-251
# UACC-257 = test system: UACC-257
# UACC-62 = test system: UACC-62
# UO-31 = test system: UO-31
smiles,measurement,setting,value
c1c[nH]c(-c2cccc3nsnc23)c1,GI50,786-0,> 100 µM (inactive)
same,GI50,A498,61.7 µM (inactive)
same,GI50,A549,72.3 µM (inactive)
same,GI50,ACHN,71.9 µM (inactive)
same,GI50,BT-549,> 100 µM (inactive)
same,GI50,CAKI-1,43.5 µM (inactive)
same,GI50,CCRF-CEM,93.1 µM (inactive)
same,GI50,COLO 205,13.5 µM (inactive)
same,GI50,DU-145,> 100 µM (inactive)
same,GI50,EKVX,33 µM (inactive)
same,GI50,HCC 2998,> 100 µM (inactive)
same,GI50,HCT-116,59.7 µM (inactive)
same,GI50,HCT-15,15.7 µM
same,GI50,HOP-62,30.7 µM (inactive)
same,GI50,HT-29,53.3 µM (inactive)
same,GI50,IGROV-1,22.8 µM (inactive)
same,GI50,K562,> 100 µM (inactive)
same,GI50,KM12,30.8 µM (inactive)
same,GI50,LOX IMVI,63.1 µM (inactive)
same,GI50,M14,> 100 µM (inactive)
same,GI50,MCF7,6.7 µM (inactive)
same,GI50,MDA-MB-231,99.3 µM (inactive)
same,GI50,MDA-MB-435,> 100 µM (inactive)
same,GI50,MDA-N,> 100 µM (inactive)
same,GI50,MOLT-4,40.7 µM (inactive)
same,GI50,Malme-3M,> 100 µM (inactive)
same,GI50,NCI-H226,> 100 µM (inactive)
same,GI50,NCI-H23,> 100 µM (inactive)
same,GI50,NCI-H460,65.2 µM (inactive)
same,GI50,NCI-H522,> 100 µM (inactive)
same,GI50,NCI/ADR-RES,> 100 µM (inactive)
same,GI50,OVCAR-4,38.8 µM (inactive)
same,GI50,OVCAR-5,31.8 µM (inactive)
same,GI50,OVCAR-8,78 µM (inactive)
same,GI50,PC-3,95.9 µM (inactive)
same,GI50,RPMI-8226,57.7 µM (inactive)
same,GI50,RXF 393,38.1 µM (inactive)
same,GI50,SF-268,> 100 µM (inactive)
same,GI50,SF-295,> 100 µM (inactive)
same,GI50,SF-539,> 100 µM (inactive)
same,GI50,SK-MEL-28,> 100 µM (inactive)
same,GI50,SK-MEL-2,> 100 µM (inactive)
same,GI50,SK-MEL-5,> 100 µM (inactive)
same,GI50,SK-OV-3,> 100 µM (inactive)
same,GI50,SN12C,94.2 µM (inactive)
same,GI50,SNB-19,> 100 µM (inactive)
same,GI50,SNB-75,49.4 µM (inactive)
same,GI50,SR,25.1 µM (inactive)
same,GI50,SW-620,> 100 µM (inactive)
same,GI50,T47D,3.78 µM (inactive)
same,GI50,TK-10,19.3 µM (inactive)
same,GI50,U-251,> 100 µM (inactive)
same,GI50,UACC-257,> 100 µM (inactive)
same,GI50,UACC-62,71.9 µM (inactive)
same,GI50,UO-31,44.6 µM (inactive)
